According to patent US9096687B2, “Inhibition of inflammation using antagonists of MUC1” (DANA-FARBER CANCER INSTITUTE, INC., priority 2009, dated 2015):
Square brackets hold non-standard residues; d marks the D form. Ends that are not written are not given here.

Columns and labels:
[1] = test system: H-1975 non-small cell lung carcinoma cell line; settings: H-1975 cells, 5 μM, 3 days
Protocol: H-1975 non-small cell lung carcinoma cell line was grown in DMEM with 10% heat-inactivated fetal bovine serum with 100 units/mL penicillin, 100 μg/ml streptomycin and 2 mmol/L L-glutamine. Cells were re-seeded one day before treatments. Cells were treated with 5 μM GO-200-2B for 3 days and cell viability was determined by trypan blue exclusion.
Moreover, another non-small cell lung carcinoma cell line, H-1975, was treated with 5 μM GO-200-2B for 3 days and monitored for cell growth as well as cell death.

[2] = test system: multiple carcinoma cell lines; experiment: Growth and killing of carcinoma cell lines by L-amino acid MUC1 C-terminal peptides; type: cell-based
Text: GO-203 analogs. The inventors' recent studies have shown that a MUC1 C-terminal peptide (CQCRRKNYGQLDIFP; SEQ ID NO:3) is active in inhibiting growth of multiple carcinoma cell lines. […] However, these MUC1-C-terminal peptides consists of L-amino acids. […] Consequently, they have generated an all-dextro form of the above described shorter MUC1 C-terminal peptide, in which the L-amino acids were changed to D-amino acids (GO-203). Moreover, to determine the minimum amino acid residues from the MUC1-C-terminal region that are required to retain the cell killing activity, they have also generated many different versions of GO-203 as described in FIG. 15.

[3] = test system: ZR-75-1 breast carcinoma cells; experiment: Proliferation of ZR-75-1 breast carcinoma cells (trypan blue exclusion); type: cell-based, Human; settings: 5 μM every day for 4 days
Protocol: FIG. 17: Effect of different MUC1-CD CQC-region peptides on the growth of hormone-dependent breast carcinoma cells. To determine whether exposure to different MUC1-CD CQC-region containing peptides affect growth, ZR-75-1 breast carcinoma cells were treated with 5 μM of different peptides for 4 days and monitored for cell proliferation.
FIG. 21: Effect of Shorter GO-203 peptides on proliferation of ZR-75-1 Breast Cancer Cells. Human ZR-75-1 breast cancer cells were grown in RPMI1640 supplemented with 10% heat-inactivated fetal bovine serum, 100 units/ml penicillin, 100 μg/ml streptomycin. Cells were treated with different peptides at 5 μM every day for four days and cell viability was determined by trypan blue exclusion.
Multiple tumor cell lines (ZR-75-1 Hormone-dependent Breast Carcinoma; MDA-MB-231 Triple-Negative Breast Carcinoma; A549 Non-small Cell Lung Carcinoma; H-1975 Non-small Cell Lung Carcinoma) were grown in RPMI-1640 supplemented with 10% heat-inactivated fetal bovine serum, 100 units/mL penicillin and 100 μg/mL streptomycin and 2 mmol/L L-glutamine. Cells were treated separately with 5 μM of different analogs of GO-203 (FIG. 15) for 3 to 7 days and viability was determined by trypan blue exclusion. The proliferation of different cell lines was compared with cells treated with vehicle only.

[4] = target: T1, interaction between MUC1-CD and NF-κB p65 (Homo sapiens, UniProt P15941); experiment: In vitro binding of GST-MUC1-CD to purified NF-κB p65 (glutathione bead adsorbates, anti-p65 immunoblot); settings: 1 h at room temperature
T1 construct: a GST fusion protein containing the 72 amino acid MUC1-CD; made in house
T1 sequence (P15941 1184-1255): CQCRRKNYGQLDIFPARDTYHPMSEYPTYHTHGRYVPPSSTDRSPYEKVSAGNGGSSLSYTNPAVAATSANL
Protocol: In Vitro Binding Assays. GST, GST-MUC1-CD, GST-MUC1-CD(1-45) and GST-MUC1-CD(46-72) were prepared as described (Ahmad et al., 2007) and incubated with p65 and certain p65 deletion mutants. Purified GST-MUC1-CD was cleaved with thrombin to remove the GST moiety. GST-IκBα (Millipore, Billerica, Mass.) was incubated with p65(186-306) for 2 h at 25° C. in the absence and presence of purified MUC1-CD. Adsorbates to glutathione-conjugated beads were analyzed by immunoblotting.

[5] = target: T2, interaction between MUC1-CD and STAT3 (Homo sapiens, UniProt P15941); experiment: In vitro binding of GST-STAT3 to purified MUC1-CD; settings: 1 h at room temperature
T2 construct: a GST fusion protein containing the 72 amino acid MUC1-CD; GST (cleaved yes); made in house
T2 sequence (P15941 1184-1255): T1 sequence (P15941 1184-1255)

[6] = target: T3, IL-6-induced interaction between MUC1-C and STAT3 (Homo sapiens, UniProt P15941); experiment: Anti-STAT3 co-immunoprecipitation from IL-6-stimulated MCF-10A cells; type: cell-based; design: dose or concentration left out as unconfirmed; settings: peptide added each 24 h for 72 h
T3 construct: C-terminal subunit (MUC1 C-ter, MUC1-C), which includes a 58 amino acid extracellular region; endogenous in cells; host or cells: MCF-10A
T3 sequence (P15941 1098-1255 limits assumed): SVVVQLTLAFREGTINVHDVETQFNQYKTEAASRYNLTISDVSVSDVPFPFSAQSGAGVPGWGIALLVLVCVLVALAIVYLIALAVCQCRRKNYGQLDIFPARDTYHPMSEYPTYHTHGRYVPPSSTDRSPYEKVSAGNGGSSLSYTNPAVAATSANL

MUC1-CD oligomerization = target: T4, MUC1-CD oligomerization (Homo sapiens, UniProt P15941); experiment: Oligomerization of MUC1-CD in vitro; type: biochemical
T4 construct: contains a 72-amino acid cytoplasmic domain (MUC1-CD)
T4 sequence (P15941 1184-1255): T1 sequence (P15941 1184-1255)
Text: (§1) Previous Studies. Overexpression of MUC1 is sufficient for the induction of anchorage-independent growth and tumorigenicity (Li et al., 2003a; Huang et al., 2003; Huang et al., 2005). […] MUC1 forms oligomers and the CQC motif is necessary for this oligomerization (Leng et al., 2007). Moreover, oligomer formation is necessary for targeting of the MUC1-C subunit to the nucleus (Leng et al., 2007). The inventors synthesized a MUC1-derived peptide that contains the CQC motif and a poly-Arg cell delivery domain for entry into cells.

[7] = test system: carcinoma cells overexpressing MUC1; experiment: Growth arrest and necrosis of cells exposed to peptide; type: cell-based; settings: for growth arrest and induction of necrosis: exposure of cells
Text: as §1

[8] = target: T5, TNFα-induced interaction between MUC1-C and NF-κB p65 (Homo sapiens, UniProt P15941); experiment: Anti-p65 co-immunoprecipitation from TNFα-stimulated MCF-10A cells; type: cell-based; settings: 5 μM peptide added each 24 h for 72 h
T5 construct: C-terminal subunit (MUC1 C-ter, MUC1-C), which includes a 58 amino acid extracellular region; endogenous in cells; host or cells: MCF-10A
T5 sequence (P15941 1098-1255 limits assumed): T3 sequence (P15941 1098-1255 limits assumed)
Protocol: Cell Culture. Human ZR-75-1 breast cancer and U-937 leukemia cells were grown in RPMI 1640 medium containing 10% heat-inactivated fetal bovine serum (FBS), 100 units/ml penicillin, 100 μg/ml streptomycin and 2 mM L-glutamine. Human HeLa cervical and MCF-7 breast carcinoma cells were grown in Dulbecco's modified Eagle's medium with 10% FBS, antibiotics and L-glutamine. Human MCF-10A breast epithelial cells were grown in mammary epithelial cell growth medium (MEGM; Lonza, Walkersville, Md.) and treated with 20 ng/ml TNFα (BD Biosciences, San Jose, Calif.). Transfection of the MCF-10A cells with siRNA pools (Dharmacon, Lafayette, Colo.) was performed in the presence of Lipofectamine 2000 (Invitrogen, Carlsbad, Calif.). Cells were treated with 5 μM MUC1/CQC and MUC1/AQA peptides synthesized by the MIT Biopolymer Laboratory (Cambridge, Mass.).
Immunoprecipitation and immunoblotting. Lysates from sub-confluent cells were prepared as described (Ren et al., 2004). Soluble proteins were precipitated with anti-NF-κB p65 (Santa Cruz Biotechnology, Santa Cruz, Calif.). […] Immune complexes were detected with horseradish peroxidase-conjugated secondary antibodies (GE Healthcare Biosciences, Piscataway, N.J.) and enhanced chemiluminescence (GE Healthcare).

[9] = test system: TNFα-induced MUC1 and Bcl-xL expression; experiment: Immunoblot of lysates from TNFα-stimulated MCF-10A cells; type: cell-based, Human; settings: 5 μM peptide added each 24 h for 72 h
Protocol: Immunoprecipitation and immunoblotting. Lysates from sub-confluent cells were prepared as described (Ren et al., 2004). Soluble proteins were precipitated with anti-NF-κB p65 (Santa Cruz Biotechnology, Santa Cruz, Calif.). The immunoprecipitates and cell lysates were subjected to immunoblotting with anti-p65, anti-p65 (180-306) (Millipore, Billerica, Mass.) anti-MUC1-C (Ab5; Lab Vision, Fremont, Calif.), anti-IκBα (Santa Cruz Biotechnology), anti-Bcl-xL (Santa Cruz Biotechnology) and anti-α-actin (Sigma, St. Louis, Mo.). Immune complexes were detected with horseradish peroxidase-conjugated secondary antibodies (GE Healthcare Biosciences, Piscataway, N.J.) and enhanced chemiluminescence (GE Healthcare).

[10] = test system: STAT3 and MUC1-C on the MUC1 promoter; experiment: ChIP of MUC1 promoter STAT binding site in IL-6-stimulated MCF-10A cells; type: cell-based, Human; settings: 5 mM peptide added each 24 h for 72 h
pMUC1-Luc reporter = pMUC1-Luc reporter assay in IL-6-stimulated MCF-10A cells; type: cell-based, Human
Protocol: Luciferase Assays. Cells were transfected with NFκB-Luc (Ahmad et al., 2007) or pMUC1-Luc (Yin et al., 2003) and SV-40-Renilla-Luc (Promega, Madison, Wis.) in the presence of Lipofectamine. After 48 h, the cells were lysed in passive lysis buffer. Lysates were analyzed for firefly and Renilla luciferase activities using the dual luciferase assay kit (Promega).

[11] = test system: MUC1-C levels in the nucleus; experiment: MUC1-C levels in the nucleus after peptide uptake; type: cell-based; settings: after uptake of the peptide
Text: as §1

tumor growth = experiment: Administration to tumor bearing mice
Text: as §1

[12] = test system: MUC1-C and STAT3 occupancy of the MUC1 promoter; experiment: Constitutive occupancy of the MUC1 promoter in breast cancer cells; type: cell-based
Protocol: (§2) MUC1-C Promotes STAT3-Mediated Transcription. […] In concert with these observations, silencing MUC1 in breast cancer cells was associated with decreases in (i) constitutive STAT3 occupancy on the STAT binding site, and (ii) constitutive activation of the MUC1 promoter. To provide further support for an auto-inductive loop, studies were performed with GO-201, an inhibitor of MUC1-C oligomerization (Raina, 2009). […] Moreover, GO-201 blocked IL-6 induced activation of the MUC1 promoter. […] These findings thus provide support for the potential importance of the MUC1-C-STAT3 interaction in targeting STAT3 to the MUC1 promoter and promoting activation of the MUC1 gene in an auto-inductive loop (FIG. 7D).

MUC1 promoter = experiment: Constitutive activation of the MUC1 promoter in breast cancer cells; type: cell-based
Protocol: as §2

[13] = test system: MUC1-C and NF-κB p65 occupancy of the NF-κB binding motif in the MUC1 promoter; experiment: ChIP of MUC1 promoter NF-κB binding motif in TNFα-stimulated MCF-10A cells; settings: 5 μM peptide added each 24 h for 72 h
Protocol: MCF-10A cells were left untreated or stimulated with TNFα in the presence of 5 μM MUC1/CQC or MUC1/AQA peptide added each 24 h for 72 h. […] (FIGS. 6B and 6C) MCF-10A cells were left untreated or stimulated with TNFα in the presence of 5 μM MUC1/CQC or MUC1/AQA peptide added each 24 h for 72 h. Soluble chromatin was precipitated with anti-MUC1-C (left) or anti-p65 (right) and then analyzed for MUC1 NF-κB binding motif promoter sequences (FIG. 6B).
ChIP Assays. Soluble chromatin was prepared as described (Wei et al., 2006) and precipitated with anti-p65, anti-MUC1-C or a control non-immune IgG. […] For PCR, 2 μl from a 50 μl DNA extraction was used with 25-35 cycles of amplification.

severe sepsis = settings: decreased from about 31%; cited from earlier work
[14] = tumor bearing mice, 10 and 30 mg/kg/d for 21 d

CC(=O)N[C@@H](C)C(=O)N[C@@H](CCCCN)C(=O)N[C@@H](CCCCN)C(=O)N[C@@H](Cc1ccc(O)cc1)C(=O)N[C@@H](CC(C)C)C(=O)N[C@@]1(C)CCCC=CCCCC2(CCCC=CCCC[C@@](C)(C(=O)N[C@@H](CCCNC(=N)N)C(=O)N[C@@H](CCCCN)C(=O)N[C@@H](CC(N)=O)C(=O)N[C@@H](Cc3ccc(O)cc3)C(N)=O)NC(=O)[C@H](CS)NC(=O)[C@H](CCC(N)=O)NC(=O)[C@H](CS)NC2=O)NC(=O)[C@H](C)NC(=O)[C@H](CC(C)C)NC(=O)[C@H](C)NC1=O (stereo partly shown) [GO-200-2B]
induction of cell death [1]: significant induction of cell death

CQCRRKN [shorter MUC1-C-terminal peptide consisting of L-amino acids]
killing tumor cells [2]: active

CQCRRKNYGQLDIFP
inhibiting growth of multiple carcinoma cell lines [2]: active

GO-203: all-dextro form of the shorter MUC1 C-terminal peptide CQCRRKN (SEQ ID NO:53), L-amino acids changed to D-amino acids ([dC][dQ][dC][dR][dR][dK][dN]; cysteine pairing not given here)
growth of ZR-75-1 breast carcinoma cells [3]: significant inhibition of growth

GO-207: shorter GO-203 peptide, SEQ ID NO:4 (CQCRRK)
growth of ZR-75-1 breast carcinoma cells [3]: significant inhibition of growth

GO-208: shorter GO-203 peptide, SEQ ID NO:50 (CQCRR)
growth of ZR-75-1 breast carcinoma cells [3]: significant inhibition of growth

GO-209: shorter GO-203 peptide, SEQ ID NO:54 (CQCR)
growth of ZR-75-1 breast carcinoma cells [3]: significant inhibition of growth

MUC1/AQA: control peptide in which the CQC motif was mutated to AQA (SEQ ID NO:62), with poly D-arginine transduction domain (AQARRKNYGQLDIFP; also: poly D-arginine transduction domain, not placed) [reference compound]
interaction between MUC1-CD and NF-κB p65 in vitro [4]: little if any effect
interaction between MUC1-CD and STAT3 in vitro [5]: not
IL-6-induced interaction between MUC1-C and STAT3 [6]: not
oligomerization of MUC1-CD in vitro (MUC1-CD oligomerization): did not
growth arrest and induction of necrosis [7]: not

MUC1/CQC: peptide corresponding to MUC1-CD(1-15) (SEQ ID NO:3, CQCRRKNYGQLDIFP) with poly D-arginine transduction domain; inhibitor of MUC1-C oligomerization (cysteine pairing not given here; also: poly D-arginine transduction domain, not placed)
interaction between MUC1-CD and NF-κB p65 in vitro [4]: blocked the interaction
TNFα-induced interaction between MUC1-C and NF-κB p65 [8]: blocked
TNFα-induced Bcl-xL expression [9]: attenuated
TNFα-induced MUC1 expression [9]: decreased
interaction between MUC1-CD and STAT3 in vitro [5]: blocked
IL-6-induced interaction between MUC1-C and STAT3 [6]: blocked
IL-6-induced targeting of STAT3 and MUC1-C to the MUC1 promoter [10]: inhibited
IL-6-induced activation of the pMUC1-Luc reporter (pMUC1-Luc reporter): attenuated
oligomerization of MUC1-CD in vitro (MUC1-CD oligomerization): inhibits
MUC1-C levels in the nucleus [11]: down-regulation
selectivity of dominant-negative activity [7]: selective for carcinoma cells overexpressing MUC1
growth arrest and induction of necrosis [7]: growth arrest and the induction of necrosis
tumor growth following treatment (tumor growth; 50 mg/kg/d for 7 d): tumor growth remains arrested for extended periods
tolerability (tumor growth; [14]): well-tolerated without apparent acute toxicities
tumor growth (tumor growth; [14]): effective in abrogating tumor growth
constitutive occupancy of the MUC1 promoter by MUC1-C and STAT3 [12]: inhibits
constitutive activation of the MUC1 promoter (MUC1 promoter): inhibits
TNFα-induced MUC1-C and NF-κB p65 occupancy of the NF-κB binding motif [13]: decreased

drotrecogin alfa
mortality (severe sepsis): about 25%
